Measurements from US5739278A, “Compositions for protein tyrosine phosphatases” (University of Washington, priority 1995, dated 1998).
One block for each compound: values may come before it.

What was measured:
Assay in all cases: Phosphatase assay with ENDY(P)INASL as substrate
Type in all cases: biochemical
[1] = target: T1, CD45 (Homo sapiens, UniProt P08575)
T1 construct: CD45 were purified from placenta and spleen, respectively; from tissue; host or cells: spleen
T1 sequence (P08575 26-1306): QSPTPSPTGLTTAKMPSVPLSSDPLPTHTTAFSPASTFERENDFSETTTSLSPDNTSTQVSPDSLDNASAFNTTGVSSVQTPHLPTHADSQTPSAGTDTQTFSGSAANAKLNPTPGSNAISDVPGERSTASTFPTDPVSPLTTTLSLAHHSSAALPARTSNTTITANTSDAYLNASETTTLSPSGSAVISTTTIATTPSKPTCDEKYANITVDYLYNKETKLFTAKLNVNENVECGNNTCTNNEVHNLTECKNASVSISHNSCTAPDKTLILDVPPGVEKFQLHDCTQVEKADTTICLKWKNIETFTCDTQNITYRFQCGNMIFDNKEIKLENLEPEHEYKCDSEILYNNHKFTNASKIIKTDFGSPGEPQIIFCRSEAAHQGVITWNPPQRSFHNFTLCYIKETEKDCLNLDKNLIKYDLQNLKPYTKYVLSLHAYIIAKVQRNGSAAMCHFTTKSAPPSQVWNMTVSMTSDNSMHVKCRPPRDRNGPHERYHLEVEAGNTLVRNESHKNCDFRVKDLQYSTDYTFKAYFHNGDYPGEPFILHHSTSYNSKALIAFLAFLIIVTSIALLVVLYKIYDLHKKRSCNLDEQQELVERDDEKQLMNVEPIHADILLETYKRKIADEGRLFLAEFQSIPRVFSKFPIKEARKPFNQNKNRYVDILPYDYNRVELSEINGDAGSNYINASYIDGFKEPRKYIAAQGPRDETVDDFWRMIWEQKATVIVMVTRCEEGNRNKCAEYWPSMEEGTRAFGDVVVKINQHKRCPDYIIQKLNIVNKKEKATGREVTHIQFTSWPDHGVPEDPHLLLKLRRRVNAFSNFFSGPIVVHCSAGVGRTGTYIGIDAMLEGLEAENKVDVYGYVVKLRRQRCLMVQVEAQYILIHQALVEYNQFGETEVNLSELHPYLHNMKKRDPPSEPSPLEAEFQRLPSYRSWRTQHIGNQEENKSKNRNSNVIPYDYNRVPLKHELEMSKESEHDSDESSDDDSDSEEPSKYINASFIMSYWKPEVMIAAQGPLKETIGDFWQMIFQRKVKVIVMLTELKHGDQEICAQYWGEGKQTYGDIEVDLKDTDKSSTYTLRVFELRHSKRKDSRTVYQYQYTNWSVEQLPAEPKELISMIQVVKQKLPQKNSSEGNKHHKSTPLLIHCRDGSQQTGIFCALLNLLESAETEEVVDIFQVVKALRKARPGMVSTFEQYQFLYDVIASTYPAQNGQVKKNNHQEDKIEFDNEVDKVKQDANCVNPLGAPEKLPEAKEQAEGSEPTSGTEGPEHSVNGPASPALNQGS
Description: (§1) The tyrosine phosphatases TC.PTP, TCΔC11.PTP, and RPTPα were purified from infected Sf9 cells as described recently (Zander et al., Biochemistry 30: 6964-6970, 1991; Daum et al., J. Biol. Chem. 266: 12211-12215, 1991). The 37 kDa form of PTP1B and CD45 were purified from placenta and spleen, respectively (according to Tonks et al., J. Biol. Chem. 263: 6722-6730, 1988; Tonks et al., Biochemistry 27: 8695-8701, 1988).
(§2) Phosphatase assays with ENDY(P)INASL were performed in buffer M6. Aliquots of 30 μl or 60 μl containing the phosphopeptide, the phosphatase (-beads) and effectors were incubated for 10 minutes at 30° C. The reaction was stopped by adding 200 μl of a suspension of 10% activated, acid-washed Norit A charcoal (v/v) in 0.9N HCl, 0.1M pyrophosphate and 2 mM NaH2 PO4 (according to Streuli et al., Proc. Natl. Acad. Sci. USA 86: 8698-8702, 1989). The mixture was cleared by 10-minute centrifugation and the radioactivity of 150 μl of the supernate was determined. Assays with MBP and RCML were performed as described in Tonks et al., J. Biol. Chem. 263: 6722-6730, 1988. Protein concentration was determined with BSA as standard (Bradford, Anal. Biochem. 72: 248-254, 1976).

[2] = target: T2, PTP1B (Homo sapiens, UniProt P18031)
T2 construct: The 37 kDa form of PTP1B; from tissue; host or cells: placenta
T2 sequence (P18031 1-321 limits assumed): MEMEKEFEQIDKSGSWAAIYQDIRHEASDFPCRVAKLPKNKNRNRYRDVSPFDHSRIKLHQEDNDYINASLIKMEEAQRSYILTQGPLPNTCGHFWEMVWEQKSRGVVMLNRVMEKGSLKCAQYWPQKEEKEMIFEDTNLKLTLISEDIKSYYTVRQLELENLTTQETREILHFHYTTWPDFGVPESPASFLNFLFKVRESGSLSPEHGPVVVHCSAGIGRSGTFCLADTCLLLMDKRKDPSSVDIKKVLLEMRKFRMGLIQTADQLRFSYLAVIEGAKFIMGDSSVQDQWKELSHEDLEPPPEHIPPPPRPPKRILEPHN
Description: as §1, §2

[3] = target: T3, RPTPα (Homo sapiens, UniProt P18433)
T3 construct: made in house; host or cells: Sf9 cells (baculovirus)
T3 sequence (P18433 20-802): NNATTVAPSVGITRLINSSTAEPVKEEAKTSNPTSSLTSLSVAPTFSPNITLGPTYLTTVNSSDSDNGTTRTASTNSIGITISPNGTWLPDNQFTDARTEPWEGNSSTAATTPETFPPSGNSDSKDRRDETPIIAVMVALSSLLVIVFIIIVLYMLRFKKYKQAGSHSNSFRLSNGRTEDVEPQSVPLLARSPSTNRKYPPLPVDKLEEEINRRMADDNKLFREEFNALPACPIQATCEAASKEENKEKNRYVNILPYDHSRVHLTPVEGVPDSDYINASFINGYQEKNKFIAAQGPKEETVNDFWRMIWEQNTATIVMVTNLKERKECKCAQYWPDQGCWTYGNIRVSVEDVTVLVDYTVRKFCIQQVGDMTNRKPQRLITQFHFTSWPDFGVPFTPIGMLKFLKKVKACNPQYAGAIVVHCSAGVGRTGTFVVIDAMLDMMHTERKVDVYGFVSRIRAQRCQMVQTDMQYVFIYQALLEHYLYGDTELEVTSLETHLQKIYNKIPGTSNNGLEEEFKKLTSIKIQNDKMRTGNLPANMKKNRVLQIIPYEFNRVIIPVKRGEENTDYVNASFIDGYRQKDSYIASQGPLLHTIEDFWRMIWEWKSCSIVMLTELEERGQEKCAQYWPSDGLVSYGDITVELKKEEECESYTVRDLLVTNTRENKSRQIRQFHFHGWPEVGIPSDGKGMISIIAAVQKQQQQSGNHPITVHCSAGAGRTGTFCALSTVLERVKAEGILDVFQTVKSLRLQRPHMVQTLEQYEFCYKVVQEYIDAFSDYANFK
Description: as §1, §2

[4] = target: T4, TC.PTP (Homo sapiens, UniProt P17706); settings: TC.PTP
T4 construct: made in house; host or cells: Sf9 cells (baculovirus)
T4 sequence (P17706 1-415): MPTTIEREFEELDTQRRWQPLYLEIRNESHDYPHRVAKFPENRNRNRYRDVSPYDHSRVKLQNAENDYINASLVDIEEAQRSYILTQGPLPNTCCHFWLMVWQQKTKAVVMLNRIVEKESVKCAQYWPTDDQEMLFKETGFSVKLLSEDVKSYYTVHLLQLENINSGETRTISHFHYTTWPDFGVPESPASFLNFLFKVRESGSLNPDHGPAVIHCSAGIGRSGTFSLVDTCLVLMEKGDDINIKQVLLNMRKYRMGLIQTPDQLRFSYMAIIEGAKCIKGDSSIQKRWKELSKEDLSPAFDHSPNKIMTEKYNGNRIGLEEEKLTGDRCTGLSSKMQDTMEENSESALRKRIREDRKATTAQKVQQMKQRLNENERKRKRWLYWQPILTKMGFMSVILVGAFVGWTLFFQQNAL
Description: as §1, §2

[5] = target: T5, TCΔC11.PTP (Homo sapiens, UniProt P17706)
T5 construct: both the wild type and truncated forms of the T-cell phosphatase; made in house; host or cells: Sf9 cells (baculovirus)
T5 sequence (P17706 1-317 limits assumed): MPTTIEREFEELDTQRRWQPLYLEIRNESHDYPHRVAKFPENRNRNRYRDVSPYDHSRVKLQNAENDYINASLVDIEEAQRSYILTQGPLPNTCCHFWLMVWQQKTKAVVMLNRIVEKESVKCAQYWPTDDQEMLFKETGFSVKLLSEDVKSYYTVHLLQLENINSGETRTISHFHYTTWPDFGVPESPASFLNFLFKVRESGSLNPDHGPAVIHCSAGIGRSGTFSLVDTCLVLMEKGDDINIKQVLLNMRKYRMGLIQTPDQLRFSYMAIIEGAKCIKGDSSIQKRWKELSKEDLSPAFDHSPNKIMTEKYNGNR
Description: as §1, §2

[6] = 10 min, effector 0.1 mM, read-out: Phosphatase activity in percent of the value obtained in the absence of effectors
[7] = 10 min, effector 2.0 mM, read-out: Phosphatase activity in percent of the value obtained in the absence of effectors
[8] = 10 min, effector 5.0 mM, read-out: Phosphatase activity in percent of the value obtained in the absence of effectors
[9] = 10 min, effector 0.5 mM, read-out: Phosphatase activity in percent of the value obtained in the absence of effectors
[10] = 10 min, effector 1.0 mM, read-out: Phosphatase activity in percent of the value obtained in the absence of effectors

- Phosphatase activity in percent of the value obtained in the absence of effectors ([1]; effector 1.0 mM): 96%
- Phosphatase activity in percent of the value obtained in the absence of effectors ([1]; effector 3.0 mM): 78%
- Phosphatase activity in percent of the value obtained in the absence of effectors ([1]; effector 5.0 mM): 76%
- Phosphatase activity in percent of the value obtained in the absence of effectors ([2]; effector 1.0 mM): 139%
- Phosphatase activity in percent of the value obtained in the absence of effectors ([2]; effector 3.0 mM): 125%
- Phosphatase activity in percent of the value obtained in the absence of effectors ([2]; effector 5.0 mM): 110%
- Phosphatase activity in percent of the value obtained in the absence of effectors ([3]; effector 1.0 mM): 115%
- Phosphatase activity in percent of the value obtained in the absence of effectors ([3]; effector 3.0 mM): 97%
- Phosphatase activity in percent of the value obtained in the absence of effectors ([3]; effector 5.0 mM): 86%
- Phosphatase activity in percent of the value obtained in the absence of effectors ([4]; effector 1.0 mM): 119%
- Phosphatase activity in percent of the value obtained in the absence of effectors ([4]; effector 3.0 mM): 104%
- Phosphatase activity in percent of the value obtained in the absence of effectors ([4]; effector 5.0 mM): 80%
- Phosphatase activity in percent of the value obtained in the absence of effectors ([5]; effector 1.0 mM): 142%
- Phosphatase activity in percent of the value obtained in the absence of effectors ([5]; effector 3.0 mM): 109%
- Phosphatase activity in percent of the value obtained in the absence of effectors ([5]; effector 5.0 mM): 93%
Structure (SMILES): O=C(O)CN(CCN(CC(=O)O)CC(=O)O)CC(=O)O [EDTA]

- remaining activity at 100 µM [1, 6]: 103%
- remaining activity at 2000 µM [1, 7]: 92%
- remaining activity at 5000 µM [1, 8]: 83%
- Phosphatase activity in percent of the value obtained in the absence of effectors ([2]; effector 0.1 mM): 89%
- Phosphatase activity in percent of the value obtained in the absence of effectors ([2]; effector 2.0 mM): 94%
- Phosphatase activity in percent of the value obtained in the absence of effectors ([2]; effector 5.0 mM): 92%
- remaining activity at 100 µM [3, 6]: 72%
- remaining activity at 2000 µM [3, 7]: 60%
- remaining activity at 5000 µM [3, 8]: 34%
- remaining activity at 100 µM [4, 6]: 92%
- remaining activity at 2000 µM [4, 7]: 88%
- remaining activity at 5000 µM [4, 8]: 91%
- remaining activity at 100 µM [5, 6]: 67%
- remaining activity at 2000 µM [5, 7]: 65%
- remaining activity at 5000 µM [5, 8]: 66%
Structure (SMILES): NCCCCNCCCN [spermidine]

- remaining activity at 100 µM [1, 6]: 117%
- remaining activity at 500 µM [1, 9]: 100%
- remaining activity at 1000 µM [1, 10]: 85%
- Phosphatase activity in percent of the value obtained in the absence of effectors ([2]; effector 0.1 mM): 87%
- Phosphatase activity in percent of the value obtained in the absence of effectors ([2]; effector 0.5 mM): 89%
- Phosphatase activity in percent of the value obtained in the absence of effectors ([2]; effector 1.0 mM): 82%
- remaining activity at 100 µM [3, 6]: 89%
- remaining activity at 500 µM [3, 9]: 57%
- remaining activity at 1000 µM [3, 10]: 41%
- remaining activity at 100 µM [4, 6]: 119%
- remaining activity at 500 µM [4, 9]: 109%
- remaining activity at 1000 µM [4, 10]: 82%
- remaining activity at 100 µM [5, 6]: 81%
- remaining activity at 500 µM [5, 9]: 60%
- remaining activity at 1000 µM [5, 10]: 55%
Structure (SMILES): NCCCNCCCCNCCCN [spermine]

- Phosphatase activity in percent of the value obtained in the absence of effectors ([1]; effector 0.01 mM): 92%
- Phosphatase activity in percent of the value obtained in the absence of effectors ([1]; effector 0.1 mM): 53%
- Phosphatase activity in percent of the value obtained in the absence of effectors ([1]; effector 1.0 mM): 3%
- Phosphatase activity in percent of the value obtained in the absence of effectors ([2]; effector 0.01 mM): 65%
- Phosphatase activity in percent of the value obtained in the absence of effectors ([2]; effector 0.1 mM): 17%
- Phosphatase activity in percent of the value obtained in the absence of effectors ([2]; effector 1.0 mM): 6%
- Phosphatase activity in percent of the value obtained in the absence of effectors ([3]; effector 0.01 mM): 99%
- Phosphatase activity in percent of the value obtained in the absence of effectors ([3]; effector 0.1 mM): 77%
- Phosphatase activity in percent of the value obtained in the absence of effectors ([3]; effector 1.0 mM): 4%
- Phosphatase activity in percent of the value obtained in the absence of effectors ([4]; effector 0.01 mM): 61%
- Phosphatase activity in percent of the value obtained in the absence of effectors ([4]; effector 0.1 mM): 26%
- Phosphatase activity in percent of the value obtained in the absence of effectors ([4]; effector 1.0 mM): 8%
- Phosphatase activity in percent of the value obtained in the absence of effectors ([5]; effector 0.01 mM): 61%
- Phosphatase activity in percent of the value obtained in the absence of effectors ([5]; effector 0.1 mM): 54%
- Phosphatase activity in percent of the value obtained in the absence of effectors ([5]; effector 1.0 mM): 21%
Structure (SMILES): [Zn+2] [Zn^2+]
